Test results taken from PubChem BioAssay (NCI).
Where “and” joins values, the source holds several entries; their conditions need not be identical. Equal values may be shown once.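 Five compound concentrations were applied to cells in 96-well plates for 48 hours; endpoints were derived by simple linear interpolation of the resulting dose-response curve. GI50: concentration for 50% inhibition of growth. TGI is the concentration that stops growth completely.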

Key:
Assay in all cases: NCI anticancer screen, dose series, 48 h
[1] = tested on: 786-0 renal
[2] = tested on: ACHN renal
[3] = tested on: CCRF-CEM leukemia
[4] = tested on: HT29 colon
[5] = tested on: MALME-3M melanoma
[6] = tested on: MOLT-4 leukemia
[7] = tested on: RXF 393 renal
[8] = tested on: SK-MEL-2 melanoma
[9] = tested on: SNB-75 CNS
[10] = tested on: U251 CNS
[11] = tested on: MCF7 breast

| Compound | TGI [1] [µM] | TGI [2] [µM] | TGI [3] [µM] | TGI [4] [µM] | TGI [5] [µM] | TGI [6] | TGI [7] | TGI [8] | TGI [9] | TGI [10] [µM] | TGI [11] [µM] | GI50 [3] [µM] | GI50 [4] [µM] | GI50 [6] [µM] | GI50 [7] [µM] | GI50 [8] [µM] | GI50 [9] [µM] | GI50 [10] [µM] | GI50 [11] [µM] |
| --- | --- | --- | --- | --- | --- | --- | --- | --- | --- | --- | --- | --- | --- | --- | --- | --- | --- | --- | --- |
| O=c1cc(-c2ccccc2)[nH]c2c(F)ccc(F)c12 | > 100 | > 100 | > 100 | > 100 | 96.3 | > 100 µM | > 100 µM | 77.1 µM | 59 µM | > 100 |  |  |  |  |  |  |  |  |  |
| COc1cc2c3c4[n+](cc2c(OC)c1OC)CCC4CCC3 (centres undefined) | > 100 | > 100 | > 100 | > 100 | > 65.8 | > 100 µM | > 100 µM | > 100 µM |  | > 100 | > 100 |  |  |  |  |  |  |  |  |
| COc1cccc2c1C(=O)c1c(O)c3c(c(O)c1C2=O)C[C@@](O)(C(=O)CO)CC3OC1CC(NCCCCC(OC(C)=O)OC(C)=O)C(O)C(C)O1 (some centres undefined) | > 1 | 0.0057 | 0.0118 | 0.0125 |  | 0.00909 µM and 0.00236 µM | 0.00356 µM and 0.00642 µM | 0.00435 µM and 0.00331 µM | 0.00432 µM and 0.00344 µM |  |  | 0.000538 | 0.00103 | 0.000378 | 0.00269 | 0.00171 | 0.000927 | 0.00266 |  |
| C/C(=N\Nc1nc2ccccc2n1C)c1ccncn1 | 20.3 | 30.9 | > 52.6 | 30.3 | > 100 | > 100 µM |  | > 100 µM | > 70.9 µM | > 32.9 | > 100 |  |  |  |  |  |  |  |  |
| COc1ccc(Nc2ccnc3cc(Cl)ccc23)cc1CN(CCCl)CCCl |  |  |  | 6.42 |  | 2.61 µM |  |  |  | > 100 | 6.42 | 0.664 | 1.62 | 0.662 |  |  |  | 1.79 | 0.633 |
| C/C(=N/OCCC(=O)O)C1CC1 | > 100 | > 100 | > 100 | > 100 | > 100 |  | > 100 µM | > 100 µM | > 100 µM | > 100 |  |  |  |  |  |  |  |  |  |
| CCC(C)Cn1c(C)nc2c1C(=O)c1ccccc1C2=O (centres undefined) | 75.4 | > 100 | 96.8 | > 100 | 73.7 | > 100 µM | > 100 µM | 76.5 µM | > 100 µM | > 100 |  |  |  |  |  |  |  |  |  |
| CC(NC1=NCCO1)c1ccco1 (centres undefined) | > 100 | > 100 | > 100 | > 100 | > 100 | > 100 µM | > 100 µM | > 100 µM |  | > 100 | > 100 |  |  |  |  |  |  |  |  |
| C/C(=C\c1ccccc1)n1c(=O)cc(C)n1C |  | > 100 | > 100 | > 100 |  | > 100 µM | > 100 µM | > 100 µM | > 100 µM | > 100 | > 100 |  |  |  |  |  |  |  |  |
| CC(C)(C)C1=CC(O)(c2c3ccccc3c(C3(O)C=C(C(C)(C)C)C(=O)C(C(C)(C)C)=C3)c3ccccc23)C=C(C(C)(C)C)C1=O | > 100 | > 100 | > 100 | > 100 | > 100 | > 100 µM |  | > 100 µM | > 100 µM | > 100 | > 100 |  |  |  |  |  |  |  |  |
| CC(C)c1cc(C(C)C)c(B(c2ccccc2)c2ccccc2)c(C(C)C)c1Br | > 100 | > 100 | > 100 | > 100 | > 100 | > 100 µM | > 100 µM | > 100 µM |  | > 100 | > 100 |  |  |  |  |  |  |  |  |
| CO/C=C(/C(=O)OC)c1ccccc1[C@H]1C[C@@H]1c1ccccc1 | > 100 | 60.6 | > 100 | 56.5 | 41.3 | > 100 µM | > 100 µM | 34.8 µM |  | > 100 | > 100 |  |  |  |  |  |  |  |  |
| COc1ccc(-c2nc3ncccn3c2-c2ccc(S(C)(=O)=O)cc2)cc1 | > 100 | > 100 | > 100 | > 100 |  | > 100 µM |  | > 100 µM | > 100 µM | > 100 | 81.8 |  |  |  |  |  |  |  |  |
| CCOC(=O)N1c2c(c3ccccc3n2C(=O)OCC)C(=O)C(OC)N1C(=O)OCC (centres undefined) | > 100 | 92.7 | > 100 | 85.5 | 69.8 | 50.8 µM |  | 36.4 µM |  | 76.5 | > 100 |  |  |  |  |  |  |  |  |
| O=C(OCC(OC(=O)c1ccccc1)C1CC(C(O)C2CCCCC2)C(=O)O1)c1ccccc1 (centres undefined) | > 100 | > 100 | 52.8 |  |  | 47.9 µM | > 100 µM | > 100 µM | > 100 µM | > 100 | 96.7 |  |  |  |  |  |  |  |  |
| O=C(CSCC(=O)N/N=C\c1cccc(Br)c1)N/N=C\c1cccc(Br)c1 | 35.5 | 26.4 |  | 66.7 |  | 73 µM | 67.9 µM | 91.3 µM | 39.4 µM | 28.8 | > 100 |  |  |  |  |  |  |  |  |
| CC1=CCC(=O)[C@]2(C)C(CC(=O)O)[C@]3(C)C4=C(C)C(c5ccoc5)C[C@@H]4O[C@@H]3[C@H](O)[C@@H]12 (some centres undefined) | > 100 | > 100 | > 100 |  | > 100 | > 100 µM |  | > 100 µM | > 100 µM | > 100 | > 100 |  |  |  |  |  |  |  |  |
| N#CC(NNC(=O)c1c(Cl)c(Cl)c(Cl)c(Cl)c1-c1nc2ccc(C(=O)c3ccccc3)cc2[nH]1)c1cccc(Oc2ccccc2)c1 (centres undefined) | 51.4 | 88.8 | 29 | > 100 |  | > 100 µM | 55.5 µM | 47.2 µM | 72.8 µM | > 100 | 65.6 |  |  |  |  |  |  |  |  |
| O=C(/C=C/c1ccc(OCCCOc2ccc(/C=C/C(=O)c3ccc(Cl)cc3)cc2)cc1)c1ccc(Cl)cc1 | > 100 | > 100 | > 100 | > 100 | > 100 | > 100 µM | > 100 µM | > 100 µM | > 100 µM | > 100 |  |  |  |  |  |  |  |  |  |
| c1ccc(C2C3=C(CCCC3)Nc3nnnn32)cc1 (centres undefined) | > 100 | > 100 |  |  |  | > 100 µM | 27.8 µM | > 100 µM |  | > 100 | > 100 |  |  |  |  |  |  |  |  |
| COc1ccc(C2CCc3c(cnc4nc(N)nc(N)c34)C2)cc1 (centres undefined) | 26.8 | 51 |  | > 100 | > 100 | > 100 µM | 42.6 µM | > 100 µM | 26.7 µM | > 100 | 45.1 |  |  |  |  |  |  |  |  |
